Measured values reported in EP4810052A2, “HCRHR2 SELECTIVE POLYPEPTIDES” (Gubra A/S, priority 2023, dated 2026).
Like-named read-outs stand apart in the source and are kept apart here. Starred links: 1 amine or outer side, 2 acyl side, 3 side chain; linkers in the order of their positions; H or OH if unused. Non-standard residues stand in square brackets, D forms with d. Residues, ends and D or L forms follow the SMILES beside them. Groups on a side chain read outwards from the residue. *: point of attachment. C20 diacid = O=C(O)CCCCCCCCCCCCCCCCCCC(=O)*; γGlu = O=C(O)[C@H](CCC(=O)[*:2])N[*:1]; NMeI = CC[C@H](C)[C@H](NC)C(=O)O; Nle = CCCC[C@H](N)C(=O)O; AEEA = NCCOCCOCC(=O)O; Aib = CC(C)(N)C(=O)O

Assays:
[1] = target: T1, hCRHR1 (Homo sapiens, UniProt P34998); assay: HTRF cAMP assay, determination of hCRHR1 potency (peptide libraries 5 conc., purified peptides 11 conc.); format: cell-based
T1 sequence (P34998 24-415): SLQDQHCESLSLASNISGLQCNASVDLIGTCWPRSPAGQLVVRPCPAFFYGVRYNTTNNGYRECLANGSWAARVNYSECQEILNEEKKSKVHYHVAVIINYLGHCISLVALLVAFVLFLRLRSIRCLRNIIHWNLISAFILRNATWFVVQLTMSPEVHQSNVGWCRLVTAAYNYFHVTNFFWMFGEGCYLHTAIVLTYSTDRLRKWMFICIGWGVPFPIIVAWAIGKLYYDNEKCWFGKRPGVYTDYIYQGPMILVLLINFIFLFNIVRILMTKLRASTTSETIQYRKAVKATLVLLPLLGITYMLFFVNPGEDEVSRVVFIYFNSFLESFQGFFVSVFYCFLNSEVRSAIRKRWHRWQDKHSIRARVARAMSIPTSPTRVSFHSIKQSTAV
In short: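 CHO-K1 cells stably expressing human CRHR1, thawed from frozen stocks just before use, were stimulated in suspension with agonist peptides. cAMP was measured by HTRF competitive immunoassay (cryptate anti-cAMP antibody vs d2-cAMP).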

[2] = target: T2, hCRHR2 (Homo sapiens, UniProt Q13324); assay: HTRF cAMP assay, determination of hCRHR2 potency (peptide libraries 5 conc., purified peptides 11 conc.); format: cell-based
T2 sequence (Q13324 1-411): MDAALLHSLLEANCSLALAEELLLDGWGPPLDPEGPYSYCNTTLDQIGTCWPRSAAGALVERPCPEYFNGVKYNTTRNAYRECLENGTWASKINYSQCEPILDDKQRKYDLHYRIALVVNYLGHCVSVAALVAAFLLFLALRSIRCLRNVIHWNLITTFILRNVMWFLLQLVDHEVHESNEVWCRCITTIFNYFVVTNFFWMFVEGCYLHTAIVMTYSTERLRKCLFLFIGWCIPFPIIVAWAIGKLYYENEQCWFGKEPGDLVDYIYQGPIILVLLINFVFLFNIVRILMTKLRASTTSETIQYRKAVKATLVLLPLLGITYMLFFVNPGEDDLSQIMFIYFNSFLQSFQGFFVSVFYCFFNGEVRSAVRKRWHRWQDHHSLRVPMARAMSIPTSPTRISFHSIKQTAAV
In short: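 CHO-K1 cells stably expressing human CRHR2 were thawed from frozen stocks immediately before use and assayed in suspension with agonist peptides. cAMP was measured by time-resolved FRET in a competitive immunoassay between cryptate-labelled anti-cAMP antibody and d2-labelled cAMP. EC50 values came from nonlinear regression, sigmoid variable-slope fit.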

[3] = Table 4, library peptides having X^38 = Nle, read-out: hCRHR1 pEC50 (converted)
[4] = Table 4, library peptides having X^38 = Nle, read-out: hCRHR2 pEC50 (converted)

| EC50 [1, 3] [nM] | EC50 [2, 4] [nM] | SMILES | other results |
| --- | --- | --- | --- |
| 1000 | 0.0251 | CCCC[C@H](NC(=O)[C@@H](NC(=O)[C@H](CCC(=O)O)NC(=O)C(C)(C)NC(=O)[C@H](CC(N)=O)NC(=O)[C@@H](NC(=O)[C@H](CCCCNC(=O)COCCOCCNC(=O)COCCOCCNC(=O)CC[C@H](NC(=O)CC[C@H](NC(=O)CCCCCCCCCCCCCCCCCCC(=O)O)C(=O)O)C(=O)O)NC(=O)[C@H](C)NC(=O)[C@H](CCC(N)=O)NC(=O)[C@H](CCC(=O)O)NC(=O)[C@H](CCCNC(=N)N)NC(=O)[C@H](C)NC(=O)[C@H](C)NC(=O)[C@H](CCCNC(=N)N)NC(=O)[C@H](C)NC(=O)[C@H](CCCNC(=N)N)NC(=O)[C@H](C)NC(=O)[C@H](CCC(N)=O)NC(=O)CNC(=O)[C@H](CC(C)C)NC(=O)[C@H](CC(C)C)NC(=O)[C@@H](NC(=O)[C@H](CCC(N)=O)NC(=O)[C@H](CC(C)C)NC(=O)[C@H](CC(C)C)NC(=O)CNC(=O)[C@@H](NC(=O)[C@@H]1CCCN1C(=O)[C@@H](NC(=O)[C@H](CC(=O)O)NC(=O)[C@H](CC(C)C)NC(=O)[C@H](CO)NC(=O)[C@H](CC(C)C)NC(=O)[C@@H](NC(=O)[C@@H](NC)[C@@H](C)CC)C(C)C)C(C)C)[C@@H](C)CC)[C@@H](C)CC)[C@@H](C)O)[C@@H](C)CC)C(=O)N[C@@H](C)C(=O)N[C@@H](CCC(=O)O)C(=O)N[C@H](C(N)=O)C(C)C [compound 204] (H-[NMeI]VLSLDVPIGLLQILLGQARARAAREQAK([AEEA-AEEA-γGlu-γGlu-C20 diacid])TN[Aib]EI[Nle]AEV-NH2) |  |
| 3160 | 0.02 | CCCC[C@H](NC(=O)[C@@H](NC(=O)[C@H](CCC(=O)O)NC(=O)C(C)(C)NC(=O)[C@H](CC(N)=O)NC(=O)[C@@H](NC(=O)[C@H](CCCCNC(=O)COCCOCCNC(=O)COCCOCCNC(=O)CC[C@H](NC(=O)CC[C@H](NC(=O)CCCCCCCCCCCCCCCCCCC(=O)O)C(=O)O)C(=O)O)NC(=O)[C@H](C)NC(=O)[C@H](CCC(N)=O)NC(=O)[C@H](CCC(=O)O)NC(=O)[C@H](CCCNC(=N)N)NC(=O)[C@H](C)NC(=O)[C@H](C)NC(=O)[C@H](CCCNC(=N)N)NC(=O)[C@H](C)NC(=O)[C@H](CCCNC(=N)N)NC(=O)[C@H](C)NC(=O)[C@H](CCC(N)=O)NC(=O)[C@@H](NC(=O)[C@H](CC(C)C)NC(=O)[C@H](CC(C)C)NC(=O)[C@@H](NC(=O)[C@H](CCC(N)=O)NC(=O)[C@H](CC(C)C)NC(=O)[C@H](CC(C)C)NC(=O)CNC(=O)[C@@H](NC(=O)[C@@H]1CCCN1C(=O)[C@@H](NC(=O)[C@H](CC(=O)O)NC(=O)[C@H](CC(C)C)NC(=O)[C@H](CO)NC(=O)[C@H](CC(C)C)NC(=O)[C@@H](NC(=O)[C@@H](NC)[C@@H](C)CC)C(C)C)C(C)C)[C@@H](C)CC)[C@@H](C)CC)[C@@H](C)CC)[C@@H](C)O)[C@@H](C)CC)C(=O)N[C@@H](C)C(=O)N[C@@H](CCC(=O)O)C(=O)N[C@H](C(N)=O)C(C)C [compound 209] (H-[NMeI]VLSLDVPIGLLQILLIQARARAAREQAK([AEEA-AEEA-γGlu-γGlu-C20 diacid])TN[Aib]EI[Nle]AEV-NH2) |  |

More lines, now with the values behind:

| SMILES | EC50 [1, 3] [nM] | EC50 [2, 4] [nM] | other results |
| --- | --- | --- | --- |
| CC[C@H](C)[C@H](N)C(=O)N[C@H](C(=O)N[C@@H](CC(C)C)C(=O)N[C@@H](CO)C(=O)N[C@@H](CC(C)C)C(=O)N[C@@H](CC(=O)O)C(=O)N[C@H](C(=O)N1CCC[C@H]1C(=O)N[C@H](C(=O)NCC(=O)N[C@@H](CC(C)C)C(=O)N[C@@H](CCCCNC(=O)COCCOCCNC(=O)COCCOCCNC(=O)CC[C@H](NC(=O)CC[C@H](NC(=O)CCCCCCCCCCCCCCCCCCC(=O)O)C(=O)O)C(=O)O)C(=O)N[C@@H](CCC(N)=O)C(=O)N[C@H](C(=O)N[C@@H](CC(C)C)C(=O)N[C@@H](CC(C)C)C(=O)N[C@@H](CCC(=O)O)C(=O)N[C@@H](CCC(N)=O)C(=O)N[C@@H](C)C(=O)N[C@@H](CCCNC(=N)N)C(=O)N[C@@H](C)C(=O)N[C@@H](CCCNC(=N)N)C(=O)N[C@@H](C)C(=O)N[C@@H](C)C(=O)N[C@@H](CCCNC(=N)N)C(=O)N[C@@H](CCC(=O)O)C(=O)N[C@@H](CCC(N)=O)C(=O)N[C@@H](C)C(=O)N[C@H](C(=O)N[C@H](C(=O)N[C@@H](CC(N)=O)C(=O)N[C@@H](C)C(=O)N[C@@H](CCC(=O)O)C(=O)N[C@H](C(=O)N[C@@H](CC(C)C)C(=O)N[C@@H](C)C(=O)N[C@@H](CCC(=O)O)C(=O)N[C@H](C(N)=O)C(C)C)[C@@H](C)CC)[C@@H](C)O)[C@@H](C)O)[C@@H](C)CC)[C@@H](C)CC)C(C)C)C(C)C [SEQ ID NO: 261] (H-IVLSLDVPIGLK([AEEA-AEEA-γGlu-γGlu-C20 diacid])QILLEQARARAAREQATTNAEILAEV-NH2) |  |  | EC50 ([1]; purified peptides, CHO-K1 cells stably expressing hCRHR1, cAMP HTRF, read-out: hCRHR1 EC50): > 5000 nM; Selectivity ratio (hCRHR1/ hCRHR2) ([2]; hCRHR1-EC50/hCRHR2-EC50): >208; EC50 ([2]; purified peptides, CHO-K1 cells stably expressing hCRHR2, cAMP HTRF, read-out: hCRHR2 EC50): 24 nM |
| CCCC[C@H](NC(=O)[C@@H](NC(=O)[C@H](CCC(=O)O)NC(=O)[C@H](C)NC(=O)[C@H](CC(N)=O)NC(=O)[C@@H](NC(=O)[C@H](CCCCNC(=O)COCCOCCNC(=O)COCCOCCNC(=O)CC[C@H](NC(=O)CC[C@H](NC(=O)CCCCCCCCCCCCCCCCCCC(=O)O)C(=O)O)C(=O)O)NC(=O)[C@H](C)NC(=O)[C@H](CCC(N)=O)NC(=O)[C@H](CCC(=O)O)NC(=O)[C@H](CCCNC(=N)N)NC(=O)[C@H](C)NC(=O)[C@H](CO)NC(=O)[C@H](CCCNC(=N)N)NC(=O)[C@H](C)NC(=O)[C@H](CCCNC(=N)N)NC(=O)[C@H](C)NC(=O)[C@H](CCC(N)=O)NC(=O)[C@H](CCC(=O)O)NC(=O)[C@H](CC(C)C)NC(=O)[C@H](CC(C)C)NC(=O)[C@@H](NC(=O)[C@H](CCC(N)=O)NC(=O)[C@H](CC(C)C)NC(=O)[C@H](CC(C)C)NC(=O)CNC(=O)[C@@H](NC(=O)[C@@H]1CCCN1C(=O)[C@@H](NC(=O)[C@H](CC(=O)O)NC(=O)[C@H](CC(C)C)NC(=O)[C@H](CO)NC(=O)[C@H](CC(C)C)NC(=O)[C@@H](NC(=O)[C@@H](N)[C@@H](C)CC)C(C)C)C(C)C)[C@@H](C)CC)[C@@H](C)CC)[C@@H](C)O)[C@@H](C)CC)C(=O)N[C@@H](C)C(=O)N[C@@H](CCC(=O)O)C(=O)N[C@H](C(N)=O)C(C)C [compound 61] (H-IVLSLDVPIGLLQILLEQARARSAREQAK([AEEA-AEEA-γGlu-γGlu-C20 diacid])TNAEI[Nle]AEV-NH2) |  |  | EC50 ([1]; library peptides, matched molecular pairs L vs Nle in position X^38, read-out: Potency hCRHR1 pEC50 (converted)): 1260 nM; EC50 ([2]; library peptides, matched molecular pairs L vs Nle in position X^38, read-out: Potency hCRHR2 pEC50 (converted)): 0.1 nM |
| CCCC[C@H](NC(=O)[C@@H](NC(=O)[C@H](CCC(=O)O)NC(=O)C(C)(C)NC(=O)[C@H](CC(N)=O)NC(=O)[C@@H](NC(=O)[C@H](CCCCNC(=O)COCCOCCNC(=O)COCCOCCNC(=O)CC[C@H](NC(=O)CC[C@H](NC(=O)CCCCCCCCCCCCCCCCCCC(=O)O)C(=O)O)C(=O)O)NC(=O)[C@H](C)NC(=O)[C@H](CCC(N)=O)NC(=O)[C@H](CCC(=O)O)NC(=O)[C@H](CCCNC(=N)N)NC(=O)[C@H](C)NC(=O)[C@H](C)NC(=O)[C@H](CCCNC(=N)N)NC(=O)[C@H](C)NC(=O)[C@H](CCCNC(=N)N)NC(=O)[C@H](C)NC(=O)[C@H](CCC(N)=O)NC(=O)[C@H](CCCNC(=N)N)NC(=O)[C@H](CC(C)C)NC(=O)[C@H](CC(C)C)NC(=O)[C@@H](NC(=O)[C@H](CCC(N)=O)NC(=O)[C@H](CC(C)C)NC(=O)[C@H](CC(C)C)NC(=O)CNC(=O)[C@@H](NC(=O)[C@@H]1CCCN1C(=O)[C@@H](NC(=O)[C@H](CC(=O)O)NC(=O)[C@H](CC(C)C)NC(=O)[C@H](CO)NC(=O)[C@H](CC(C)C)NC(=O)[C@@H](NC(=O)[C@@H](NC)[C@@H](C)CC)C(C)C)C(C)C)[C@@H](C)CC)[C@@H](C)CC)[C@@H](C)O)[C@@H](C)CC)C(=O)N[C@@H](C)C(=O)N[C@@H](CCC(=O)O)C(=O)N[C@H](C(N)=O)C(C)C [compound 198] (H-[NMeI]VLSLDVPIGLLQILLRQARARAAREQAK([AEEA-AEEA-γGlu-γGlu-C20 diacid])TN[Aib]EI[Nle]AEV-NH2) | 63100 | 0.0316 |  |
